Experimental data as given in patent US20140154182A1 (priority 2011, published 2014).

Key:
NMDAR ion channel = assay: Competition binding assay against [3H]MK-801 in rat forebrain membranes; settings: against 5 nM [3H]MK-801; mean±SEM of 2-6 independent determinations, each in triplicate
Protocol: Male Wistar rats (150-200 g) were killed by decapitation. The forebrains were rapidly removed and homogenized using a DUALL tissue homogenizer (10 strokes, 2000 rpm), in a 7-fold excess (v/w) of ice-cold 0.25 M sucrose. The nuclei and cell debris were removed by centrifugation (10 min x 400×g) in a Sorvall RC-6 refrigerated centrifuge (rotor SA600). The supernatant was decanted and the resulting pellet was rehomogenized in 5 vol 0.25 M sucrose and recentrifuged. The combined supernatants were diluted in Tris-acetate buffer (50 mM, pH 7.4) to a final dilution of 40 v/w, and centrifuged for 30 min×30,000×g, in order to obtain membranes from the cell surface, mitochondrial, and microsomal fractions. The pellet was resuspended in 20 vol of 50 mM Tris buffer containing 0.04% Triton X-100 (pH 7.4), and was kept at 25° C. for 2 hr before recentrifugation. The resulting pellet was suspended in Tris-HCl buffer (dilution 4, pH 7.4) and stored at −80° C. in 5 ml aliquots. On the day of each experiment, membranes were thawed to room temperature and washed twice by centrifugation (30 min×200,000×g). After the final centrifugation step, pellets were suspended in 50 mM Tris-HCl buffer (pH 7.4) and further diluted to 40 vol of buffer per g original weight wet tissue for competition binding experiments.
Protein concentration was determined using the BCA protein kit (Sigma-Aldrich, The Netherlands).
In vitro competition binding experiments were performed using 5 nM [^3H]MK-801 (specific activity 22.5 Ci/mmol; PerkinElmer, USA). All compounds as prepared in the Examples and listed in Table 2 were dissolved as 10 mM stock solutions in DMSO, and used in a concentration range from 10^−4 to 10^−12 M, with a maximal DMSO concentration of 1%. Competition binding experiments were conducted at room temperature, in a final volume of 500 μl assay buffer (50 mM Tris-HCl, pH 7.4), containing 1 μM L-glutamate and glycine. The incubation mixture was composed of 400 μl membrane suspension (protein concentration 1 μg/μL), 50 μL [^3H]MK-801, 45 μl assay buffer and 5 μl unlabeled drug solution. Nonspecific binding was determined in the presence of 30 μM GMOM. Incubations were terminated overnight by filtration, using a 48-well Brandel harvester and Whatman GF/B filters, presoaked in 0.3% polyethyleneimine. The filters were washed three times with 3 ml of ice-cold Tris-HCl buffer (pH 7.4), and radioactivity was subsequently determined by liquid scintillation spectrometry in 5 mL of Optiphase-HiSafe 3, at an efficiency of 40%.
Ki values were determined by nonlinear regression analysis using the equation: log EC50=log [10̂log Ki*(1+RadioligandNM/HotKdNM)], (GraphPad Software Inc., San Diego, Calif.).
In this table the Ki for the different compounds is stated. The Ki as measured against 5 nM [^3H]MK-801 and represent the mean±SEM Ki values of 2-6 independent determinations, each conducted in triplicate, The indexes (b), (c) and (d) describe the form in which the compound was tested: (b) fumaric acid salt, (c) free base, (d) hydrochloric acid salt.

physchem = format: physicochemical; settings: 1-octanol / 0.2M phosphate buffer pH 7.4, room temperature, triplicate; read-out: LogDoct,7.4
Protocol: The distribution of the radio labeled compounds between 1-octanol and 0.2M phosphate buffer (pH=7.4) was measured in triplicate at room temperature. Briefly, 1 mL of a 20 MBq/mL solution of the radio labeled compound in 0.2M phosphate buffer (pH=7.4) was vigorously mixed with 1 mL of 1-octanol for 1 min at room temperature using a vortex. After a settling period of 30 min, five samples of 100 μL were taken from both layers. For determining recovery, 5 samples of 100 μL were taken from the 20 MBq/mL solution. All samples were counted for radioactivity. The LogDoct,7.4 value was calculated according to LogDoct,7.4=^10Log(Aoct/Abuffer), where Aoct and Abuffer represent the average radioactivity counted of the 5 1-octanol and 5 buffer samples, respectively.

NMDA receptors = assay: Ex vivo autoradiography and MK-801 blocking study; format: in vivo, mice
Protocol: To visualize the distribution and specificity of [^18F]PK209 or [^11C]PK083 for NMDA receptors, anaesthetized mice were injected with either saline or MK-801 (0.6 mg/kg, i.p.), 10 min before a tail-vein injection of each of the radiolabeled compounds (n=2). 5 min following injection of [^11C]PK083 or 15 min after [^18F]PK209 injection, mice were killed by cervical dislocation, and their brains were removed, frozen in liquid nitrogen and processed for quantitative autoradiography. Briefly, 20 μm coronal brain sections were cut at 300 μm intervals, from rostral to caudal areas. Sections from each mouse were opposed to Kodak Biomax MR-1 film, either immediately or following 2×30 sec washes in ice-cold Tris-HCl buffer (pH 7.4) and a dip in ice-cold demi water. Films were developed after 24 hr, and relevant optical density (ROD) values were obtained using the MCID software. Sections from control and MK-801 treated mice were processed in parallel. All brain regions were identified by reference to the mouse atlas of Franklin and Paxinos (2001).
Reference is made to FIG. 3. […] FIG. 3A the [^18F]209 specific binding (relevant optical density) is shown for (from left to right) frontal cortex, striatum, hippocampus, cerebral cortex and cerebellum. In FIG. 3B representative images are shown for (from bottom to top) cerebellum, hippocampus, striatum, cerebral cortex and frontal cortex.
Specific binding was defined as that […] pretreatment with MK-801 (0.6 mg/kg i.p.). […] Specific [^18F]PK-209 binding constituted 10% and 8% of total binding values in the hippocampus and the cerebral cortex, respectively.

[1] = format: in vivo, B6C3 mice; settings: for organ with the highest uptake: 5 min following tracer injection, blood, heart, lungs, liver, kidney; for DAR (differential absorption ratio), cerebellum / DAR (differential absorption ratio), cerebral cortex / DAR (differential absorption ratio), hippocampus / DAR (differential absorption ratio), prefrontal cortex / DAR (differential absorption ratio), striatum: 5 min post-injection, i.v.; for DAR (differential absorption ratio), cerebellum / DAR (differential absorption ratio), cerebral cortex / DAR (differential absorption ratio), hippocampus / DAR (differential absorption ratio), prefrontal cortex / DAR (differential absorption ratio), striatum / time of highest ratio of radioactivity uptake between forebrain regions and the cerebellum: mice; for clearance of radioactivity from the brain: mouse, in vivo; for time of highest ratio of radioactivity uptake between forebrain regions and the cerebellum: post-injection
Protocol: Male, 7-9 weeks old, B6C3 mice were used in all experiments. Animals were anaesthetized with an i.p. injection of Hypnorm/dormicum (12 ml/kg), after which [^18F]PK209 (as prepared in Example 26) (19.0±1.1 MBq at t0) or [^11C]PK083 (as prepared in Example 22) (24.4±3.5 MBq at t0) was administered via the tail vein, in a saline solution containing 10% ethanol (5 ml/kg). Following the injections, mice were killed by cervical dislocation at 5, 10, 30, or 60 min (n=4−6). At each time point, blood was obtained by heart punctures and selected organs, including the heart, liver, kidneys, lungs and brain were removed. The brain was further dissected into prefrontal cortex, striatum, cerebral cortex, hippocampus and cerebellum. All organs and brain areas were weighed, and recovered radioactivity was determined with a Compugamma (LKB Wallac), using 5×10 μl aliquots of the injected formulation as standard. Results are expressed as the differential absorption ratio (DAR): (cpm recovered/g tissue)/(cpm injected/g body weight). Two-way repeated measures ANOVA, followed by LSD post-hoc analysis was used for between-region (or organ) comparisons of radiotracer uptake at different time points.

[2] = quantitative autoradiography, relevant optical density

## CSc1ccc(Cl)c(NC(=N)Nc2cccc(OC(F)(F)F)c2)c1 [compound 8, 1-(2-chloro-5-(methylthio)phenyl)-3-(3-(trifluoromethoxy)phenyl)guanidine]
NMDAR ion channel
  Ki: 235 ± 55.5 nM

## CSc1ccc(Cl)c(NC(=N)N(C)c2cccc(OCCCF)c2)c1 [compound 23, 3-(2-chloro-5-(methylthio)phenyl)-1-(3-(3-fluoropropoxy)phenyl)-1-methylguanidine]
NMDAR ion channel
  Ki: 179 ± 39 nM

## CSc1ccc(Cl)c(NC(=N)N(C)c2cccc(OC[18F])c2)c1 [[^18F]PK209]
physchem
  logD: 1.45 ± 0.02
NMDA receptors; 15 min after injection, MK-801 0.6 mg/kg i.p. pretreatment
  specific binding as share of total binding, cerebral cortex: 8%
NMDA receptors; [2]
  binding level, cerebellum: moderate
  binding level, cerebral cortex: high
  binding level, frontal cortex: low
  binding level, hippocampus: high
  binding level, striatum: low
[1]
  organ with the highest uptake: lungs
  DAR (differential absorption ratio), cerebellum: 0.84±0.09
  DAR (differential absorption ratio), cerebral cortex: 1.17±0.07
  DAR (differential absorption ratio), hippocampus: 1.05±0.09
  DAR (differential absorption ratio), prefrontal cortex: 1.19±0.10
  DAR (differential absorption ratio), striatum: 1.19±0.15
  clearance of radioactivity from the brain: cleared rapidly
  time of highest ratio of radioactivity uptake between forebrain regions and the cerebellum: 15 min

## CSc1ccc(Cl)c(NC(=N)N(C)c2cccc(OC(F)(F)F)c2)c1 [compound 19, 3-(2-chloro-5-(methylthio)phenyl)-1-methyl-1-(3-(trifluoromethoxy)phenyl)guanidine]
NMDAR ion channel
  Ki: 12 ± 2 nM

## CSc1ccc(Cl)c(NC(=N)N([11CH3])c2cccc(OC(F)F)c2)c1 [[^11C]PK083, 1-(2-chloro-5-(methylthio)phenyl)-3-^11C-methyl-3-(3-(difluoromethoxy)phenyl)guanidine]
physchem
  logD: 1.76 ± 0.01
[1]
  organ with the highest uptake: lungs
  DAR (differential absorption ratio), cerebellum: 0.55±0.07
  DAR (differential absorption ratio), cerebral cortex: 0.83±0.11
  DAR (differential absorption ratio), hippocampus: 1.41±0.46
  DAR (differential absorption ratio), prefrontal cortex: 0.96±0.16
  DAR (differential absorption ratio), striatum: 0.86±0.13
  clearance of radioactivity from the brain: rapidly cleared
  time of highest ratio of radioactivity uptake between forebrain regions and the cerebellum: 5 min

## CSc1ccc(Cl)c(NC(=N)N(C)c2cccc(OC(F)(F)C(F)F)c2)c1 [compound 20, 3-(2-chloro-5-(methylthio)phenyl)-1-methyl-1-(3-(1,1,2,2-tetrafluoroethoxy)phenyl)guanidine]
NMDAR ion channel
  Ki: 56.7 ± 6.2 nM

## COc1cccc(N(C)C(=N)Nc2cc(SC)ccc2Cl)c1 [compound 14, reference compound]
NMDAR ion channel
  Ki: 21.7 ± 2.2 nM

## CSc1ccc(Cl)c(NC(=N)N(C)c2cccc(O)c2)c1 [compound 17, 3-(2-chloro-5-(methylthio)phenyl)-1-(3-hydroxyphenyl)-1-methylguanidine]
NMDAR ion channel
  Ki: 551 ± 57.8 nM

## CSc1ccc(Cl)c(NC(=N)Nc2cccc(OC(F)F)c2)c1 [compound 7, 1-(2-chloro-5-(methylthio)phenyl)-3-(3-(difluoromethoxy)phenyl)guanidine]
NMDAR ion channel
  Ki: 147 ± 15 nM

## CSc1ccc(Cl)c(NC(=N)N(C)c2cccc(OC(F)F)c2)c1 [compound 18, 3-(2-chloro-5-(methylthio)phenyl)-1-(3-(difluoromethoxy)phenyl)-1-methylguanidine]
NMDAR ion channel
  Ki: 10 ± 2 nM
